In PMC8333062, “Chemical tools for epichaperome-mediated interactome dysfunctions of the central nervous system” (Nature Communications, 2021):
“And” between values parts separate entries of the source, which are not always exact repeats. Equal entries are not always repeated. Where two headings read alike, the source gives them in different places.

How the values were obtained:
CYP2C8 = target: T1, CYP2C8 (Homo sapiens, UniProt P10632); assay: Cytochrome P450 profiling, montelukast; type: in vitro ADME; details: for % PU-HZ151 remaining: Montelukast
T1 construct: tissue Life Technologies HMMCPL; host or cells: human liver microsomes
T1 sequence (P10632 1-490): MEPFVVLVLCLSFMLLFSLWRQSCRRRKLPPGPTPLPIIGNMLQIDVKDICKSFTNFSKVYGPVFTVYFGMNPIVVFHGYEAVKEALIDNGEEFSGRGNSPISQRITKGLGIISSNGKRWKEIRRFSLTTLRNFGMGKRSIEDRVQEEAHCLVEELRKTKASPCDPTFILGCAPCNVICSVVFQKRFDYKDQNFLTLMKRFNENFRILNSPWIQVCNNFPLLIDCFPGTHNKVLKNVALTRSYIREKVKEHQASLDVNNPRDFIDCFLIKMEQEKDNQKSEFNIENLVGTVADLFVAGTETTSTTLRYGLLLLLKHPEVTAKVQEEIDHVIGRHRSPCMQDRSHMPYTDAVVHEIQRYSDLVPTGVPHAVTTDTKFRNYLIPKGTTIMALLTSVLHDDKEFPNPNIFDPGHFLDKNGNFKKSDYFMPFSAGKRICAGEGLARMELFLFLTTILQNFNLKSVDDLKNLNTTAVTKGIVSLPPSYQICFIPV
Method: To identify cytochrome P450 enzymes responsible for PU-HZ151’s metabolism in human liver microsomes the following procedure was followed. Phosphate buffer (100 mM, pH 7.4) was prepared monthly and stored at 4 °C. Frozen stock solutions of human liver microsomes (Life Technologies; Cat# HMMCPL) were used once after thawing and were not refrozen. NADPH stock solution (50 mM) in distilled water was prepared fresh daily. […] The stock solutions of these P450 inhibitors were prepared in DMSO. […] The concentration of the chemical inhibitors used in the assay were furafylline (10 μM), tranylcypromine (2 μM), ketoconazole (1 μM), troleandomycin (20 μM), orphenadrine (50 μM), montelukast (3 μM), sulfaphenazole (10 μM), benzylnirvanol (1 μM), quinidine (1 μM), and 1-aminobenzotriazole (1 mM) for all the P450 enzymes. Timing of the reactions was started following the addition of NADPH/magnesium chloride mix and PU-HZ151. Time-dependent chemical inhibitors (furafylline, troleandomycin, orphenadrine, and 1-aminobenzotriazole) were preincubated with human microsomes in the presence of NADPH and magnesium chloride for 15 min before the addition of PU-HZ151 and timing of reactions was started after addition of PU-HZ151. […] Following brief vortexing and centrifugation, a 200 µL aliquot of the supernatant was transferred to a tube, and 10 µL of haloperidol (1 µg mL^−1) as internal standard was added. Following brief vortexing and centrifugation, 50 µL of supernatant was added to a 96-well plate for subsequent LC-MS/MS analysis. PU-HZ151 was similarly tested as above in the absence of CYP inhibitors for comparative purposes. All samples were assayed in duplicate. […] This was similarly performed for incubations of PU-HZ151 performed in the absence of CYP inhibitor.

[1] = Pharmacokinetic studies in mice (LC-MS/MS); type: in vivo, B6D2F1 mice; set-up: key to Brain level: brain drug concentration in μM, corrected for 0.8 mL/g water space; Plasma level: unit: uM; details: for Brain level / Plasma level: listed as PU-HZ151
Method: Blood and brain tissue were collected following euthanasia at the scheduled time points of 5, 30 min, 1, 4, and 8 h following iv dosing and of 30 min, 1, 4, and 8 h following po dosing. Brain samples were immediately flash frozen in liquid nitrogen following collection and stored at −80 °C until analysis. Blood samples were collected into an EDTA tube by heart puncture and centrifuged at 17,000×g for 5 min at 4 °C to separate the plasma and immediately frozen on dry ice and stored at −80 °C until analysis. […] This was homogenized, extracted with methylene chloride, and evaporated on a GeneVac. […] Drug concentration (μM) in the brain was then modified to account for an average water space of 0.8 mL g^−1.

HepG2 cells (Pgp +ve) = assay: Cell viability, ATP levels 72 h; type: cell-based, human; details: for Cell viability (ATP levels): HEPG2
Method: Supplementary Fig. 15: PU-HZ151 activity in cells is unaffected by Pgp overexpression. a Two Pgp-positive cells lines, Kasumi-1 and HepG2, were tested for epichaperome-positivity. β-Actin, loading control. b ATP levels in cell treated for 72 h with 0 to 1 µM PU-HZ151. Data are presented as means ±s.e.m. of three experimental repeats. Control, vehicle (DMSO) treated cells. c Western blot analysis of aberrant signaling pathway inhibition by […]
(also on this page, place not known: MDA‐MB-468ASPC1Kasumi Hep G2 ATP levels %Control MDA‐MB-468ASPC1Kasumi 1Hep G2 β-Actin HSP90α Native-PAGE SDS PAGE 100- β-Actin 1)

CC(C)(C)CNCCn1c(Sc2cc3c(cc2I)OCO3)nc2c(N)ncnc21 [Compound 85]
% PU-HZ151 remaining (CYP2C8; 15 min): 59.7% | % PU-HZ151 remaining (CYP2C8; 30 min): 42.1% | % PU-HZ151 remaining (CYP2C8; 60 min): 22.4% | inhibition of PU-HZ151 metabolism (CYP2C8; montelukast): 6% | Brain level ([1]; time 5 min, individual animals): 15.4588 and 7.86 and 11.67 | Brain level ([1]; time 0.5 h, individual animals): 4.224 and 4.34 and 4.57 | Brain level ([1]; time 1 h, individual animals): 2.2188 and 1.91 and 1.47 | Brain level ([1]; time 4 h, individual animals): 0.07412 and 0.06266 and 0.11 and 0.04 | Brain level ([1]; time 8 h, individual animals): 0.009121 and 0.03148 and 0.03 and 0.11 | Plasma level ([1]; time 5 min, individual animals): 9.01 and 9.336 and 14.2069 and 3.61 | Plasma level ([1]; time 0.5 h, individual animals): 1.67 and 1.018 and 1.136 and 1.35 | Plasma level ([1]; time 1 h, individual animals): 0.32 and 0.7228 and 0.6745 and 0.42 | Plasma level ([1]; time 4 h, individual animals): 0.02 and 0.03223 and 0.03275 and 0.03 | Plasma level ([1]; time 8 h, individual animals): 0.01 (2×) and 0 (2×) | brain exposure relative to PU-H71 ([1]; i.v. 10 mg kg^−1): approximately ten-fold higher | Cmax ([1]; male, B6D2F1, mouse, brain and lung, iv, single i.v. 10 mg/kg): 10 to 15 µM | Kp ([1]; male, B6D2F1, mouse, brain, 10 mg kg^−1, oral administration, read-out: brain/plasma): 1.6 | concentration at 5 min ([1]; male, B6D2F1, mouse, brain, intravenous, 10 mg kg^-1, Brain, time 5 min, individual animals, read-out: Brain level): 13.5 µM | concentration at 0.5 h ([1]; male, B6D2F1, mouse, brain, intravenous, 10 mg kg^−1, Brain, time 0.5 h, individual animals, read-out: Brain level): 4.58 µM | concentration at 1 h ([1]; male, B6D2F1, mouse, brain, intravenous, 10 mg kg^−1, Brain, time 1 h, individual animals, read-out: Brain level): 2.06 µM | Kp ([1]; male, B6D2F1, mouse, brain, iv, 10 mg kg^−1, read-out: brain to plasma ratio): 2.35 | AUC ([1]; male, B6D2F1, mouse, brain, iv, i.v. 10 mg kg^−1, read-out: brain exposure, AUC): 8.25 µM·h | AUC ([1]; male, B6D2F1, mouse, plasma, iv, i.v. 10 mg kg^−1, read-out: plasma exposure, AUC): 3.52 µM·h | bioavailability ([1]; male, B6D2F1, mouse, plasma, oral, 10 mg kg^−1): 68% | activity in Pgp-overexpressing vs Pgp-low cells (HepG2 cells (Pgp +ve)): comparable activity | Cell viability (ATP levels) (HepG2 cells (Pgp +ve); 1.95312 nM, replicates, listed as PU-HZ151, 0.00195312 µM): 87.8706 and 102.165 | Cell viability (ATP levels) (HepG2 cells (Pgp +ve); 3.90625 nM, replicates, listed as PU-HZ151, 0.00390625 µM): 90.4471 and 81.5412 | Cell viability (ATP levels) (HepG2 cells (Pgp +ve); 7.8125 nM, replicates, listed as PU-HZ151, 0.0078125 µM): 90.4471 and 73.8824 | Cell viability (ATP levels) (HepG2 cells (Pgp +ve); 15.625 nM, replicates, listed as PU-HZ151, 0.015625 µM): 83.4588 and 82.6941 | Cell viability (ATP levels) (HepG2 cells (Pgp +ve); 31.25 nM, replicates, listed as PU-HZ151, 0.03125 µM): 65.6706 and 60.9647 | Cell viability (ATP levels) (HepG2 cells (Pgp +ve); 62.5 nM, replicates, listed as PU-HZ151, 0.0625 µM): 37.2471 and 23.6471 | Cell viability (ATP levels) (HepG2 cells (Pgp +ve); 125 nM, replicates, listed as PU-HZ151, 0.125 µM): 13.5294 and 11.2118 | Cell viability (ATP levels) (HepG2 cells (Pgp +ve); 500 nM, replicates, listed as PU-HZ151, 0.5 µM): 2.612 and 2.282 | Cell viability (ATP levels) (HepG2 cells (Pgp +ve); 1000 nM, replicates, listed as PU-HZ151, 1 µM): 1.824 | viability at 0.00195312 µM (HepG2 cells (Pgp +ve); Homo sapiens, HepG2, HEPG2, 1.95312 nM, replicates): 99.4% | viability at 0.00390625 µM (HepG2 cells (Pgp +ve); Homo sapiens, HepG2, HEPG2, 3.90625 nM, replicates): 81.2% | viability at 0.0078125 µM (HepG2 cells (Pgp +ve); Homo sapiens, HepG2, HEPG2, 7.8125 nM, replicates): 79.7% | viability at 0.015625 µM (HepG2 cells (Pgp +ve); Homo sapiens, HepG2, HEPG2, 15.625 nM, replicates): 72.1% | viability at 0.03125 µM (HepG2 cells (Pgp +ve); Homo sapiens, HepG2, HEPG2, 31.25 nM, replicates): 70.3% | viability at 0.0625 µM (HepG2 cells (Pgp +ve); Homo sapiens, HepG2, HEPG2, 62.5 nM, replicates): 27.4% | viability at 0.125 µM (HepG2 cells (Pgp +ve); Homo sapiens, HepG2, HEPG2, 125 nM, replicates): 16.9% | viability at […] (HepG2 cells (Pgp +ve); Homo sapiens, HepG2, HEPG2, 250 nM, replicates): 2.72% | viability at 0.5 µM (HepG2 cells (Pgp +ve); Homo sapiens, HepG2, HEPG2, 500 nM, replicates): 1.86% | viability at 1 µM (HepG2 cells (Pgp +ve); Homo sapiens, HepG2, HEPG2, 1000 nM, replicates): 1.85%
